Source: US20210204550A1, “STABILIZED FUNGICIDAL COMPOSITION” (priority 2018, published 2021)
Structures can show the parent of a compound that is named as a salt.

How the values were obtained:
Botrytis cinerea = assay: Antifungal activity against Botrytis cinerea on plants (percent control relative to untreated plants); conditions: Example 3; stored at 54° C. for two weeks or at 40° C. for eight weeks
Alternaria solani = assay: Antifungal activity against Alternaria solani on tomato plants (percent control relative to untreated plants); format: in vivo
[1] = Relative fusaricidin A levels in stored formulations by HPLC/MS TOF; conditions: Example 4; 54° C. for two weeks or 40° C. for eight weeks; FIGS. 3 and 4
[2] = Example 3, stored at 54° C. for two weeks or at 40° C. for eight weeks
[3] = agent at 2% in 70:30 (BC:water) dilution, after storage at 54° C. for two weeks
[4] = across the three assays of Tables 2-4, agent at 2% in 60:40 (BC:water) dilution

| Compound | effect of stabilizing agent on antifungal activity of Paenibacillus sp. strain NRRL B-50972 BC (Botrytis cinerea) | effect of stabilizing agent on antifungal activity of Paenibacillus sp. strain NRRL B-50972 BC (Alternaria solani; [2]) | effect of stabilizing agent on antifungal activity of Paenibacillus sp. strain NRRL B-50972 BC (Alternaria solani; [3]) | effect of stabilizing agent on fusaricidin A in Paenibacillus sp. strain NRRL B-50972 BC [1] | effect of stabilizing agent on antifungal activity of Paenibacillus sp. strain NRRL B-50972 BC (Alternaria solani; [4]) |
| --- | --- | --- | --- | --- | --- |
| O=P([O-])([O-])O.[K+].[K+] [potassium phosphate (dibasic)] | less than that of urea and betaine hydrochloride | less than that of urea and betaine hydrochloride | stabilized the antifungal activity | had less of an effect in stabilizing fusaricidin A |  |
| O=C([O-])CC(O)(CC(=O)[O-])C(=O)[O-].[K+].[K+].[K+] [Potassium citrate (tribasic), potassium citrate (tribasic)] |  |  | demonstrated a stabilizing effect |  |  |
| C[N+](C)(C)CC(=O)O [betaine hydrochloride] | robust effect in stabilizing the antifungal activity | robust effect in stabilizing the antifungal activity |  |  |  |
| glycerol ethyl oxylate |  |  |  |  | had little effect |
| N=C(N)N [guanidine hydrochloride] |  |  |  |  | preserved the antifungal activity |
| NC(N)=O [urea, carbonic diamide (CO(NH2)2)] | robust effect in stabilizing the antifungal activity | robust effect in stabilizing the antifungal activity |  |  | preserved the antifungal activity |
| O=P([O-])(O)O.[K+] [potassium phosphate (monobasic)] |  |  | did not |  |  |
